Results reported in patent publication US20250257034A1, “INDOLE DERIVATIVES AS SEROTONERGIC AGENTS USEFUL FOR THE TREATMENT OF DISORDERS RELATED THERETO” (priority 2023, published 2025).
Where “and” joins values, the source holds several entries; their conditions need not be identical. Equal values may be shown once. Read-outs that look alike come from different tables or passages of the source.

Tests used:
[1] = Human liver microsomes stability; assay type: in vitro ADME; conditions: Human liver microsomes; for half-life at 2 μM / microsomal CLint at 2 μM: 2 μM compound, 0.5 mg/mL microsomes, 1 mM NADPH; for half-life at 2 μM: 37° C; for microsomal CLint at 2 μM: read-out: CLint (μL/min/mg protein); for CLint scaled at 2 μM: read-out: Scaled-up CLint
Procedure, shortened: (§1)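 In this assay, 2 μM compound is incubated with NADPH-supplemented liver microsomes (human pooled; male rat; male mouse) at 37° C for up to 60 min. Depletion is followed by LC-MS/MS, and CLint is expressed per mg microsomal protein.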

[2] = Rat liver microsomes stability; assay type: in vitro ADME; conditions: Rat liver microsomes; for microsomal CLint at 2 μM / half-life at 2 μM / CLint scaled at 2 μM: male; for microsomal CLint at 2 μM: rat, liver microsomes, read-out: CLint (μL/min/mg protein); for microsomal CLint at 2 μM / half-life at 2 μM: 2 μM compound, 0.5 mg/mL microsomes, 1 mM NADPH; for half-life at 2 μM: 37° C; for CLint scaled at 2 μM: read-out: Scaled-up CLint
Procedure, shortened: as §1

[3] = Pharmacokinetic studies in rat (i.v.); assay type: in vivo; conditions: rat plasma; for Apparent t1/2 / half-life: estimated from 2 points only; for concentration at 0.25 h / concentration at 1 h / concentration at 4 h / half-life / AUC(0-t): male, Sprague-Dawley, rat, plasma, iv; for concentration at 0.25 h / concentration at 1 h / concentration at 4 h: read-out: Plasma concentration; for half-life: read-out: Apparent t1/2 (converted); for AUC(0-t): read-out: AUC0-tlast
Method: Animals: Male Sprague-Dawley rats (˜225-350 g) from Charles River Labs were acclimatized for a minimum of 5 days prior to start of study procedures. Body weights were recorded on the day of dosing.
Any abnormalities were documented including presence/absence of wet dog shakes/back muscle contractions (WDS/BMC).
Dosing: Formulations were administered intravenously (i.v.) via the tail vein using a 25 G needle connected to a 1 cc syringe.
The Compounds of Formula (I) were freshly prepared at the appropriate concentrations in 5% Tween-80 in saline.
Blood collection time (h): 0.25, 1 and 4.
Volume/time-point: ˜0.25 mL […] (saphenous vein).
Instrumentation: AB Sciex QTRAP 4000 or 6500 MS/MS system equipped with an LC system with a binary pump, a solvent degasser, a thermostatted column compartment and a multiplate autosampler.
Analysis software: Phoenix® WinNonlin® 8.3 (Pharsight, Certara, Mountainview, CA).
Analysis methods: non-compartmental analysis, linear up/log down trapezoidal rule.
PK parameters: t1/2 and AUC0-tlast were be estimated.
Volume/time-point: ˜0.25 mL (saphenous vein).
PK parameters: t1/2 and AUC0-tlast were estimated.

[4] = I-17 1.33 mg/kg i.v., individual rats R07-R09, 1.33 mg/kg
[5] = 1.33 mg/kg, I-17 1.33 mg/kg i.v., Mean ± SD
[6] = 1.33 mg/kg, I-17 1.33 mg/kg i.v., individual rats R07-R09
[7] = I-19 1.2 mg/kg i.v., individual rats R07-R09, 1.2 mg/kg
[8] = 1.2 mg/kg, I-19 1.2 mg/kg i.v., individual rats R07-R09

In the case of `CSc1ccc2[nH]cc(CCN(C(C)C)C(C)C)c2c1` [Compound I-17, N-Isopropyl-N-(2-(5-(methylthio)-1H-indol-3-yl)ethyl)propan-2-amine], the “Predicted hepatic CL” value [1] is reported as 19.11 mL/min/kg, the half-life at 2 μM [1] is reported as 6.99 min and the microsomal CLint at 2 μM [1] is reported as 198 µL/min/mg. For the same molecule, the CLint scaled at 2 μM [1] was 249 mL/min/kg, the “Predicted hepatic CL” value [2] was 30.01 mL/min/kg and the microsomal CLint at 2 μM [2] was 36.7 µL/min/mg. The half-life at 2 μM [2] was 37.8 min, the CLint scaled at 2 μM [2] was 65.8 mL/min/kg and the “Plasma concentration” value ([3]; I-17 1.33 mg/kg i.v., 0.25 h, individual rats R07-R09, 1.33 mg/kg) was 197 ng/mL and 259 ng/mL. The “Plasma concentration” value ([3]; I-17 1.33 mg/kg i.v., 1 h, individual rats R07-R09, 1.33 mg/kg) was 89.3 ng/mL and 120 ng/mL, the “Plasma concentration” value ([3]; I-17 1.33 mg/kg i.v., 4 h, individual rats R07-R09, 1.33 mg/kg) was 17.7 ng/mL and 15.6 ng/mL and the “AUC0-tlast” value [3, 4] was 363 ng·h/mL. The “Apparent t1/2” value [3, 4] was 67.8 min and 57 min, the concentration at 0.25 h ([3]; 1.33 mg/kg, I-17 1.33 mg/kg i.v., 0.25 h, Mean ± SD) was 198 ± 60 ng/mL and the concentration at 0.25 h ([3]; 1.33 mg/kg, I-17 1.33 mg/kg i.v., 0.25 h, individual rats R07-R09) was 139 ng/mL. For the same molecule, the concentration at 1 h ([3]; 1.33 mg/kg, I-17 1.33 mg/kg i.v., 1 h, Mean ± SD) was 103 ± 15.5 ng/mL, the concentration at 1 h ([3]; 1.33 mg/kg, I-17 1.33 mg/kg i.v., 1 h, individual rats R07-R09) was 101 ng/mL and the concentration at 4 h ([3]; 1.33 mg/kg, I-17 1.33 mg/kg i.v., 4 h, Mean ± SD) was 19.7 ± 5.39 ng/mL. For the same molecule, the concentration at 4 h ([3]; 1.33 mg/kg, I-17 1.33 mg/kg i.v., 4 h, individual rats R07-R09) was 25.8 ng/mL, the half-life [3, 5] was 72.6 ± 18.1 min and the AUC(0-t) [3, 5] was 315 ± 41.4 ng·h/mL. The half-life [3, 6] was 92.4 min and the AUC(0-t) [3, 6] was 291 ng·h/mL.

For `CSc1ccc2[nH]cc(CCN(C)C(C)C)c2c1` [Compound I-19, N-Methyl-N-(2-(5-(methylthio)-1H-indol-3-yl)ethyl)propan-2-amine], the “Predicted hepatic CL” value [1] was 16.93 mL/min/kg, the half-life at 2 μM [1] was 18.7 min and the microsomal CLint at 2 μM [1] was 74.1 µL/min/mg. The CLint scaled at 2 μM [1] was 92.9 mL/min/kg, the “Predicted hepatic CL” value [2] was 16.73 mL/min/kg and the microsomal CLint at 2 μM [2] was 13.4 µL/min/mg. The half-life at 2 μM [2] was 103 min, the CLint scaled at 2 μM [2] was 24 mL/min/kg and the “Plasma concentration” value ([3]; I-19 1.2 mg/kg i.v., 0.25 h, individual rats R07-R09, 1.2 mg/kg) was 13.4 ng/mL and 70.3 ng/mL and 84.4 ng/mL. For the same molecule, the “Plasma concentration” value ([3]; I-19 1.2 mg/kg i.v., 1 h, individual rats R07-R09, 1.2 mg/kg) was 34.4 ng/mL and 41.4 ng/mL, the “Plasma concentration” value ([3]; I-19 1.2 mg/kg i.v., 4 h, individual rats R07-R09, 1.2 mg/kg) was 4.95 ng/mL and 4.34 ng/mL and the “AUC0-tlast” value [3, 7] was 103 ng·h/mL and 118 ng·h/mL. For the same molecule, the “Apparent t1/2” value [3, 7] was 53.3 min, the concentration at 0.25 h ([3]; 1.2 mg/kg, I-19 1.2 mg/kg i.v., 0.25 h, Mean ± SD) was 56 ± 37.6 ng/mL and the concentration at 1 h ([3]; 1.2 mg/kg, I-19 1.2 mg/kg i.v., 1 h, Mean ± SD) was 35.4 ± 5.57 ng/mL. For the same molecule, the concentration at 1 h ([3]; 1.2 mg/kg, I-19 1.2 mg/kg i.v., 1 h, individual rats R07-R09) was 30.4 ng/mL, the concentration at 4 h ([3]; 1.2 mg/kg, I-19 1.2 mg/kg i.v., 4 h, Mean ± SD) was 5.35 ± 1.26 ng/mL and the concentration at 4 h ([3]; 1.2 mg/kg, I-19 1.2 mg/kg i.v., 4 h, individual rats R07-R09) was 6.76 ng/mL. The AUC(0-t) ([3]; 1.2 mg/kg, I-19 1.2 mg/kg i.v., Mean ± SD) was 96.1 ± 26.4 ng·h/mL, the half-life [3, 8] was 60 min and the AUC(0-t) [3, 8] was 66.9 ng·h/mL. It also gave a half-life ([3]; 1.2 mg/kg, I-19 1.2 mg/kg i.v., mean (n = 2)) of 56.8 min.
